Data reported in ChEMBL document CHEMBL5291721, “A preclinical secondary pharmacology resource illuminates target-adverse drug reaction associations of marketed drugs” (Nat Commun, 2023).

Experiments:
[1] = target: Beta-1 adrenergic receptor (Homo sapiens, UniProt P08588); format: functional, cell-based
[2] = target: T1, Peroxisome proliferator-activated receptor gamma (Homo sapiens, UniProt P37231); format: functional
T1 sequence (P37231 whole entry): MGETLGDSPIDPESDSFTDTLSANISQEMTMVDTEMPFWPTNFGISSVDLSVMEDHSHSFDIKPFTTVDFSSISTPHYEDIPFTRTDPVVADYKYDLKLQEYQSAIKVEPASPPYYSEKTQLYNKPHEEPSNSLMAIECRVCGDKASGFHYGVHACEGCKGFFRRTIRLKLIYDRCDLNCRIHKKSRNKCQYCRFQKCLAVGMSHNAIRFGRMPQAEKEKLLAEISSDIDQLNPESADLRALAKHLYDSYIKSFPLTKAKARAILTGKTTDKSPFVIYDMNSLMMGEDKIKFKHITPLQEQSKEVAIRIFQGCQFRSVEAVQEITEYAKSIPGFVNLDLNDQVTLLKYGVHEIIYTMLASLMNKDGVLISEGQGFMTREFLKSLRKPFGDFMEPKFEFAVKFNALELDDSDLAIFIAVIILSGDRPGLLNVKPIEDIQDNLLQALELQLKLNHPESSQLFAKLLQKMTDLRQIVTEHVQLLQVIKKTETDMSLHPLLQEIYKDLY

[3] = target: Gamma-aminobutyric acid receptor subunit alpha-1/alpha-2/beta-2/gamma-2 (Homo sapiens, UniProt P14867+P18507+P47869+P47870); format: functional, cell-based
[4] = target: Sodium channel protein type 5 subunit alpha (Homo sapiens, UniProt Q14524); format: functional, cell-based
Chain of Sodium channel protein type 5 subunit alpha (Q14524 whole entry): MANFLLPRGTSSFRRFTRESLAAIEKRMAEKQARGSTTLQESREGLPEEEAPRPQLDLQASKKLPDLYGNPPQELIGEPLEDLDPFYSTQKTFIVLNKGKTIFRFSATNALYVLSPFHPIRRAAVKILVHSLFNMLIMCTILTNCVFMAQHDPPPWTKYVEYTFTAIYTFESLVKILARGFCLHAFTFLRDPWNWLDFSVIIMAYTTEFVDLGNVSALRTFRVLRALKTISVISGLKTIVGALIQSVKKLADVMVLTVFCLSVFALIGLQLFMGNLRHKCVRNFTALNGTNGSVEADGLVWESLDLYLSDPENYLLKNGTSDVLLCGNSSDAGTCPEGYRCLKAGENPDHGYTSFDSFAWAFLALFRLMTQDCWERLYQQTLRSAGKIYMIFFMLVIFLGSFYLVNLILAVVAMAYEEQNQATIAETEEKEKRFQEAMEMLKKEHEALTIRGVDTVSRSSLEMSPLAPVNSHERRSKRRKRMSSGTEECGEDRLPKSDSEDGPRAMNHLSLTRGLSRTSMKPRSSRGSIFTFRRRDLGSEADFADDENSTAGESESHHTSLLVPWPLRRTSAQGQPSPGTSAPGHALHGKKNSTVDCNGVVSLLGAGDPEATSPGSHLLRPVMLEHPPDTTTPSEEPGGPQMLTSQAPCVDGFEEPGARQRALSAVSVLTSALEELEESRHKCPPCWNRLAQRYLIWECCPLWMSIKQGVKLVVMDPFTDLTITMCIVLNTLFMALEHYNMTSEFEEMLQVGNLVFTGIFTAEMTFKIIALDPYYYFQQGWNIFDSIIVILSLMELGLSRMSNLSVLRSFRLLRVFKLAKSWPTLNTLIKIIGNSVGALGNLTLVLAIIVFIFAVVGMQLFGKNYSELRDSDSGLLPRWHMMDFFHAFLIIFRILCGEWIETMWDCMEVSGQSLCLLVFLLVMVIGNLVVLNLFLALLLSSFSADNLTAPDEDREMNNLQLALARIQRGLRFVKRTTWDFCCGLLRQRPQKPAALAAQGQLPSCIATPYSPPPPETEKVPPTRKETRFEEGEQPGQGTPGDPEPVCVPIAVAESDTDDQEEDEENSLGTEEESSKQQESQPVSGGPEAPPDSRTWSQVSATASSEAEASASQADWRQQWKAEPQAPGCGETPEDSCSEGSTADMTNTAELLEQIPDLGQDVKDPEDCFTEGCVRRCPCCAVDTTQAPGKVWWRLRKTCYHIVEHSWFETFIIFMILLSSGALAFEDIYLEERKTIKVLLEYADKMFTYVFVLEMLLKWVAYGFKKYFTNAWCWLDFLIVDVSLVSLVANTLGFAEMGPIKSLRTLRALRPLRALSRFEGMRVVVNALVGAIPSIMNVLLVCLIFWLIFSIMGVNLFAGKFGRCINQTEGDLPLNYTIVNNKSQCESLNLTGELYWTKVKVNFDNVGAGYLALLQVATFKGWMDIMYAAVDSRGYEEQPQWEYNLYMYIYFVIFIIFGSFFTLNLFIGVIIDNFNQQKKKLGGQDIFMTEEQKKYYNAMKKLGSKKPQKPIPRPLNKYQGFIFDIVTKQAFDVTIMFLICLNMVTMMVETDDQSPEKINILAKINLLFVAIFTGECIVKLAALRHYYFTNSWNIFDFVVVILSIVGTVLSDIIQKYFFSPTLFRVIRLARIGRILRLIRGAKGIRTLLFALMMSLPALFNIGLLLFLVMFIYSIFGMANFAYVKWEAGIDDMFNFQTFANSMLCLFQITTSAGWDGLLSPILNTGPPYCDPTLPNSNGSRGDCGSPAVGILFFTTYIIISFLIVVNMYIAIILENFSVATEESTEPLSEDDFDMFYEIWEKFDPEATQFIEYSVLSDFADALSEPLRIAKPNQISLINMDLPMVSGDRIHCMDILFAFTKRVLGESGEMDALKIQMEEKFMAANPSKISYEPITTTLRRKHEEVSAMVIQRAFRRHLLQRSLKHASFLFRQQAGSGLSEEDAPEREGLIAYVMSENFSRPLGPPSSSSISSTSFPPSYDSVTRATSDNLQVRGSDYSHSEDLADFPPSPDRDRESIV

[5] = target: Beta-3 adrenergic receptor (Homo sapiens, UniProt P13945)
Chain of Beta-3 adrenergic receptor (P13945 whole entry): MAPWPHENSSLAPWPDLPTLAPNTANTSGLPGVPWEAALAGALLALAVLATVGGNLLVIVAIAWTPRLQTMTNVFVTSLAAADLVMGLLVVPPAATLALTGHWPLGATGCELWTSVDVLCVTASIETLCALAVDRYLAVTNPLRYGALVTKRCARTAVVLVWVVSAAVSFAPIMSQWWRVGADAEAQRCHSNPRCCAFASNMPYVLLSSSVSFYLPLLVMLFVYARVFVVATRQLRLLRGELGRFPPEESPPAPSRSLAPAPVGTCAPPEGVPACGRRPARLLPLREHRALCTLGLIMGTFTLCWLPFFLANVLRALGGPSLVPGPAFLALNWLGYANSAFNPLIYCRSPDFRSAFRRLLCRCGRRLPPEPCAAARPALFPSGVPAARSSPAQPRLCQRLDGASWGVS

[6] = target: T2, Corticotropin-releasing factor receptor 2 (Homo sapiens, UniProt Q13324)
T2 sequence (Q13324 whole entry): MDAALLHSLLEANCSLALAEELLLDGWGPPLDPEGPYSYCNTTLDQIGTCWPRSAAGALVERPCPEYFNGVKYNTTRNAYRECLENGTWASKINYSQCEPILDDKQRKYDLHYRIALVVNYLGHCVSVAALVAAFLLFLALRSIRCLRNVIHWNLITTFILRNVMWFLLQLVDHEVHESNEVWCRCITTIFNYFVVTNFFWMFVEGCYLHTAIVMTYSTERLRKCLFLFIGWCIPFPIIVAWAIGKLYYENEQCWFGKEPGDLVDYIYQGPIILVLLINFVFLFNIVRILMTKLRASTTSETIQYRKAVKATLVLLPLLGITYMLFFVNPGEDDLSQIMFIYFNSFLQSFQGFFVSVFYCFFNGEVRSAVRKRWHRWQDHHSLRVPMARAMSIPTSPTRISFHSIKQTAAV

Glucagon receptor = Glucagon receptor (Homo sapiens, UniProt P47871)
[7] = target: T3, Gastric inhibitory polypeptide receptor (Homo sapiens, UniProt P48546)
T3 sequence (P48546 whole entry): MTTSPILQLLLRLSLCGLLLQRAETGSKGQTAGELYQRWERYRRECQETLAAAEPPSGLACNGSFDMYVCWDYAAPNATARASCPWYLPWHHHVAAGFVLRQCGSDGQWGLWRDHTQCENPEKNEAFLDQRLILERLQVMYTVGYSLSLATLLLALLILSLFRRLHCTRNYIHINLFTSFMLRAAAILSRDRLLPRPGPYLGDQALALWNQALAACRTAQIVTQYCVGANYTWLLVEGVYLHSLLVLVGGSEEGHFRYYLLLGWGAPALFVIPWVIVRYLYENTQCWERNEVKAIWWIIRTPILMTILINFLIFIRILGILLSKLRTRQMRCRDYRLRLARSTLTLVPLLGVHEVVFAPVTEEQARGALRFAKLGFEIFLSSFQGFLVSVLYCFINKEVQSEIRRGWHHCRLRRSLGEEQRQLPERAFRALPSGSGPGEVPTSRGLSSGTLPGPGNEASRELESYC

Histamine H2 receptor = Histamine H2 receptor (Homo sapiens, UniProt P25021)
[8] = target: T4, Neuropeptide Y receptor type 2 (Homo sapiens, UniProt P49146)
T4 sequence (P49146 whole entry): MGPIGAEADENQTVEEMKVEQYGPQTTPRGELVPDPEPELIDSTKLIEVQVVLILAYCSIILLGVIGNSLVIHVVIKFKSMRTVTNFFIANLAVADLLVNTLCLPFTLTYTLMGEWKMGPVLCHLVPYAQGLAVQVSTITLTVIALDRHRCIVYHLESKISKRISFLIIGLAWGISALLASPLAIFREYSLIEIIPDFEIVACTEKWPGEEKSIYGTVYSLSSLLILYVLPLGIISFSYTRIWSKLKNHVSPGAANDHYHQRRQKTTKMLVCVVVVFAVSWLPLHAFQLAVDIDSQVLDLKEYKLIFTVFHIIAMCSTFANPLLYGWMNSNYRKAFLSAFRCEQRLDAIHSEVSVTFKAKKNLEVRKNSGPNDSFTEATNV

[9] = target: Neurotensin receptor type 1 (Homo sapiens, UniProt P30989)
Chain of Neurotensin receptor type 1 (P30989 whole entry): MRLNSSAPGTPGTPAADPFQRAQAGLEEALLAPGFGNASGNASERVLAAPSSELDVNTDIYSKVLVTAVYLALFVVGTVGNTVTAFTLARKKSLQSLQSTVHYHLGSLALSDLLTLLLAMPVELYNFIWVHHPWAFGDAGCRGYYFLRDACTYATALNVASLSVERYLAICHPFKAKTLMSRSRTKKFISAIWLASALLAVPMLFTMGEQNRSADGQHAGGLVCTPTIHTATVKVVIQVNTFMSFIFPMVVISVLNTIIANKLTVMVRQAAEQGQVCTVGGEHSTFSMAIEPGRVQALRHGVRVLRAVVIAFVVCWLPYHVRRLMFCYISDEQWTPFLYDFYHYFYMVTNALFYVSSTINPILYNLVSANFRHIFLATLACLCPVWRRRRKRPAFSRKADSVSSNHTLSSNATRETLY

D(1A) dopamine receptor = D(1A) dopamine receptor (Homo sapiens, UniProt P21728)
Histamine H1 receptor = Histamine H1 receptor (Homo sapiens, UniProt P35367); format: functional, cell-based
Chain of Histamine H1 receptor (P35367 whole entry): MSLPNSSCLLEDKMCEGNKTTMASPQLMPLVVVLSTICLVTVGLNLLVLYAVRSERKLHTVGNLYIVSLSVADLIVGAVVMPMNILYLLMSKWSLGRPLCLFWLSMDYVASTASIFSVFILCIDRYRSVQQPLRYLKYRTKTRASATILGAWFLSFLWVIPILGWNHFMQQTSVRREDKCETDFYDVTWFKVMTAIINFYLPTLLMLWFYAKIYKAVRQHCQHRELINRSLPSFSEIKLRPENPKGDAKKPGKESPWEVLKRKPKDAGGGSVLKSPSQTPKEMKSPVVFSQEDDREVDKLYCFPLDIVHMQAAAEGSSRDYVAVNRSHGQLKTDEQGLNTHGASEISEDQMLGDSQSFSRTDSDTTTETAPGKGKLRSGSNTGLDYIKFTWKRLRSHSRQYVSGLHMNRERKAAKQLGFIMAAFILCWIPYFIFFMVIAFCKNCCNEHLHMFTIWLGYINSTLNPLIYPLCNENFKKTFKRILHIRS

[10] = target: 5-hydroxytryptamine receptor 2B (Homo sapiens, UniProt P41595)
Chain of 5-hydroxytryptamine receptor 2B (P41595 whole entry): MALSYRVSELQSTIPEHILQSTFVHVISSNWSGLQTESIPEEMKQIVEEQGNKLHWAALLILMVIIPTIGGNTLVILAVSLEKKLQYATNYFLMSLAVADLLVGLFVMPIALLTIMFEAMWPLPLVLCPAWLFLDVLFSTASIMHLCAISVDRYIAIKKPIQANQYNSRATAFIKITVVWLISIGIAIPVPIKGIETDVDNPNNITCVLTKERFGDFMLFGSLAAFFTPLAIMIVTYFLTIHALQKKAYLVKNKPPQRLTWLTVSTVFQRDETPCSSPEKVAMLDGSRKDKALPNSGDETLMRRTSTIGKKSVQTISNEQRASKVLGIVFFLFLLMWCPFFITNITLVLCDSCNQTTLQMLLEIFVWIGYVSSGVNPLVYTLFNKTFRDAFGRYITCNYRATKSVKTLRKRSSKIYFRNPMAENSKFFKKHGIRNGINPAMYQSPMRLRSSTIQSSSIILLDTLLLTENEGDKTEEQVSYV

[11] = target: 5-hydroxytryptamine receptor 7 (Homo sapiens, UniProt P34969)
Chain of 5-hydroxytryptamine receptor 7 (P34969 whole entry): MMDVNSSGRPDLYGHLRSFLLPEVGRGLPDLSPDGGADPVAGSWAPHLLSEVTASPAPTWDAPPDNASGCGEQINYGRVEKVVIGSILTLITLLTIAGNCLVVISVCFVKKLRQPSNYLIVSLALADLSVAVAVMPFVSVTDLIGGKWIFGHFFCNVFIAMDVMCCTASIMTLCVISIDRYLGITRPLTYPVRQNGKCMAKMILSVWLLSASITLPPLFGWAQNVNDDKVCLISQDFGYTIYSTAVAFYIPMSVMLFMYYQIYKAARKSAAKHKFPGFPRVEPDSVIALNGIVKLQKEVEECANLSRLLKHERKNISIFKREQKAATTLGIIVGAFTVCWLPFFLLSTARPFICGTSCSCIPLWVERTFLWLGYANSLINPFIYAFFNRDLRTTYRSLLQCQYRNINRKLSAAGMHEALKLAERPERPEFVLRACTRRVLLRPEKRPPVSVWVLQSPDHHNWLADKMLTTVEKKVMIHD

[12] = target: Rod cGMP-specific 3',5'-cyclic phosphodiesterase subunit alpha (Homo sapiens, UniProt P16499); format: functional
Substance-K receptor = target: T5, Substance-K receptor (Homo sapiens, UniProt P21452)
T5 sequence (P21452 whole entry): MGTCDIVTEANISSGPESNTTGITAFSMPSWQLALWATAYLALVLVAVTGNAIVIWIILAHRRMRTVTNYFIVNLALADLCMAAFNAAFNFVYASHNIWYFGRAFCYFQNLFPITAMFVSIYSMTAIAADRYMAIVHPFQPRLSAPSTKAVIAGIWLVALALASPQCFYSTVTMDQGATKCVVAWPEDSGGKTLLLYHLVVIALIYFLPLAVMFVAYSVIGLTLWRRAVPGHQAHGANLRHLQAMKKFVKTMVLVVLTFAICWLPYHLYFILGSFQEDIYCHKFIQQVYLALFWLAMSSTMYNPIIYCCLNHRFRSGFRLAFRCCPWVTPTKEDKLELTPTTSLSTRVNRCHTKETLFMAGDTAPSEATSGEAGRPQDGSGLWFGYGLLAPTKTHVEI
Further: assay procedure not described here.

Chain of Beta-1 adrenergic receptor (P08588 whole entry): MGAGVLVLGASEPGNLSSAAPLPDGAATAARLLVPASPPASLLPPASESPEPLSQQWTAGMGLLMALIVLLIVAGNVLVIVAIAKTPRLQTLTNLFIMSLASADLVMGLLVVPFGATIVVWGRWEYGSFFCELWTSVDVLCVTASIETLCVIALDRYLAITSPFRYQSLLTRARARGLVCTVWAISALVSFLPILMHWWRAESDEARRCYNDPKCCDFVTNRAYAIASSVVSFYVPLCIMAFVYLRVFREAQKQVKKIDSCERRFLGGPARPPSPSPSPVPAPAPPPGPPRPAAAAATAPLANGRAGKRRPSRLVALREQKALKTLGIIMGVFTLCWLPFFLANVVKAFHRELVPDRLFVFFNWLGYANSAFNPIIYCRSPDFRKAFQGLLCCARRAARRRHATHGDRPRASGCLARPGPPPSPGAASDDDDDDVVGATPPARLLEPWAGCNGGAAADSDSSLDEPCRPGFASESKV

CC(C)N(CCCCOCC(=O)O)c1cnc(-c2ccccc2)c(-c2ccccc2)n1
AC50 [1]: > 30 µM

O=C(CCCN1CCC(O)(c2ccc(Br)cc2)CC1)c1ccc(F)cc1 [BROMPERIDOL]
AC50 [1]: > 30 µM

CO/N=C(\C(=O)N[C@@H]1C(=O)N2C(C(=O)O)=CCS[C@H]12)c1csc(N)n1 [CEFTIZOXIME]
AC50 [2]: > 30 µM

CO/N=C(\C(=O)N[C@@H]1C(=O)N2C(C(=O)O)=C(CSc3nc(=O)c(=O)[nH]n3C)CS[C@H]12)c1csc(N)n1 [CEFTRIAXONE]
AC50 [3]: > 30 µM
AC50 [2]: > 30 µM
AC50 [4]: > 50 µM

COc1cc(N)c(Cl)cc1C(=O)NC1CCN(CCCOc2ccc(F)cc2)CC1OC (stereo not given) [CISAPRIDE]
AC50 [5]: > 30 µM
AC50 [6]: > 30 µM
AC50 (Glucagon receptor): > 30 µM
AC50 [7]: > 30 µM
AC50 (Histamine H2 receptor): > 10 µM
AC50 [8]: > 30 µM
AC50 [9]: > 30 µM
AC50 [4]: > 50 µM
AC50 (D(1A) dopamine receptor): > 10 µM

CC(CN(C)C)C(C)(O)Cc1ccc(Cl)cc1 (stereo not given) [CLOBUTINOL]
AC50 (Histamine H1 receptor): > 30 µM

CCOC(=O)C(C)(C)Oc1ccc(Cl)cc1 [CLOFIBRATE]
AC50 [5]: > 30 µM
AC50 [6]: > 30 µM
AC50 (Glucagon receptor): > 30 µM
AC50 [7]: > 30 µM
AC50 [8]: > 30 µM
AC50 [9]: > 30 µM
AC50 [2]: > 30 µM
AC50 (D(1A) dopamine receptor): > 10 µM

CCCCOc1ccc(C(=O)CCN2CCCCC2)cc1 [DYCLONINE]
AC50 [5]: > 30 µM
AC50 [6]: > 30 µM
AC50 (Glucagon receptor): > 30 µM
AC50 [7]: > 30 µM
AC50 (Histamine H1 receptor): > 30 µM
AC50 (Histamine H2 receptor): 3.13 µM
AC50 [10]: > 10 µM
AC50 [11]: > 10 µM
AC50 [8]: > 30 µM
AC50 [9]: > 30 µM
AC50 [12]: > 10 µM
AC50 (Substance-K receptor): > 10 µM
AC50 (D(1A) dopamine receptor): > 10 µM

CC(C)NC[C@H](O)COc1ccc(CC(N)=O)cc1 [ESATENOLOL]
AC50 [6]: > 30 µM
AC50 (Glucagon receptor): > 30 µM
AC50 [7]: > 30 µM
AC50 (Histamine H2 receptor): > 10 µM
AC50 [11]: > 10 µM
AC50 [8]: > 30 µM
AC50 [9]: > 30 µM

NNC(=O)c1ccncc1 [ISONIAZID]
AC50 [5]: > 30 µM
AC50 [6]: > 30 µM
AC50 (Glucagon receptor): > 30 µM
AC50 [7]: > 30 µM
AC50 (Histamine H2 receptor): > 10 µM
AC50 [10]: > 10 µM
AC50 [11]: > 10 µM
AC50 [8]: > 30 µM
AC50 [9]: > 30 µM
AC50 (D(1A) dopamine receptor): > 10 µM

COc1ccc(CN2CCN(C(c3ccc(F)cc3)c3ccc(F)cc3)CC2)c(OC)c1OC [LOMERIZINE]
AC50 [4]: 16 µM

O=C1Nc2ccc(Cl)cc2C(c2ccccc2Cl)=NC1O (stereo not given) [LORAZEPAM]
AC50 [5]: > 30 µM
AC50 [6]: > 30 µM
AC50 (Glucagon receptor): > 30 µM
AC50 [7]: > 30 µM
AC50 (Histamine H2 receptor): > 10 µM
AC50 [10]: > 10 µM
AC50 [8]: > 30 µM
AC50 [9]: > 30 µM
AC50 (D(1A) dopamine receptor): > 10 µM

CN1CCN=C(c2ccccc2)c2cc(Cl)ccc21 [MEDAZEPAM]
AC50 [1]: > 30 µM

Cc1ccnc2c1NC(=O)c1cccnc1N2C1CC1 [NEVIRAPINE]
AC50 [5]: > 30 µM
AC50 [6]: > 30 µM
AC50 (Glucagon receptor): > 30 µM
AC50 [7]: > 30 µM
AC50 (Histamine H2 receptor): > 10 µM
AC50 [10]: > 10 µM
AC50 [11]: > 10 µM
AC50 [8]: > 30 µM
AC50 [9]: > 30 µM
AC50 [12]: > 10 µM
AC50 (Substance-K receptor): > 10 µM
AC50 (D(1A) dopamine receptor): > 10 µM

O=C(NCCO[N+](=O)[O-])c1cccnc1 [NICORANDIL]
AC50 [3]: > 30 µM
AC50 (Histamine H1 receptor): > 30 µM

CO[C@H]1C[C@H](O[C@H]2CC[C@@]3(C)[C@H](CC[C@@H]4[C@@H]3CC[C@]3(C)[C@@H](C5=CC(=O)OC5)[C@@H](OC(C)=O)C[C@]43O)C2)O[C@@H](C)[C@@H]1O [OLEANDRIN]
AC50 [3]: > 30 µM

O=c1[nH]c2ccccc2n1CCCN1CCN(C(c2ccccc2)c2ccccc2)CC1 [OXATOMIDE]
AC50 [3]: > 30 µM
AC50 (Histamine H1 receptor): > 30 µM

COc1cc2[nH]c(C)c(CCN3CCN(c4ccccc4)CC3)c2cc1OC [OXYPERTINE]
AC50 [3]: > 30 µM
AC50 (Histamine H1 receptor): > 30 µM

Fc1ccc([C@@H]2CCNC[C@H]2COc2ccc3c(c2)OCO3)cc1 [PAROXETINE]
AC50 [5]: > 30 µM
AC50 [6]: > 30 µM
AC50 (Glucagon receptor): > 30 µM
AC50 [7]: > 30 µM
AC50 [10]: 11.9 µM
AC50 [11]: > 10 µM
AC50 [8]: > 30 µM
AC50 [9]: > 30 µM
AC50 [12]: > 10 µM
AC50 [4]: 25.4 µM
AC50 (Substance-K receptor): > 10 µM
AC50 (D(1A) dopamine receptor): > 10 µM

c1ccc(C2(N3CCCCC3)CCCCC2)cc1 [PHENCYCLIDINE]
AC50 [3]: > 30 µM

COc1cc(C(=O)OCc2cccc(COC(=O)c3cc(OC)c(OC)c(OC)c3)n2)cc(OC)c1OC [PIROZADIL]
AC50 [3]: > 30 µM
AC50 (Histamine H1 receptor): > 30 µM

CCC(NC(C)C)C(O)c1ccc(O)c2[nH]c(=O)ccc12 (stereo not given) [PROCATEROL]
AC50 (D(1A) dopamine receptor): > 30 µM

CCC(=O)O[C@](Cc1ccccc1)(c1ccccc1)[C@H](C)CN(C)C [PROPOXYPHENE]
AC50 [5]: > 30 µM
AC50 [6]: > 30 µM
AC50 (Glucagon receptor): > 30 µM
AC50 [7]: > 30 µM
AC50 (Histamine H2 receptor): 4.95 µM
AC50 [10]: > 10 µM
AC50 [8]: > 30 µM
AC50 [9]: > 30 µM
AC50 (D(1A) dopamine receptor): > 10 µM

CCc1nc(N)nc(N)c1-c1ccc(Cl)cc1 [PYRIMETHAMINE]
AC50 [10]: > 10 µM

O=c1c(O)c(-c2ccc(O)c(O)c2)oc2cc(O)cc(O)c12 [QUERCETIN]
AC50 [6]: > 30 µM
AC50 (Glucagon receptor): > 30 µM
AC50 [7]: > 30 µM
AC50 (Histamine H2 receptor): > 10 µM
AC50 [10]: 19.4 µM
AC50 [8]: > 30 µM
AC50 [9]: > 30 µM
AC50 (D(1A) dopamine receptor): > 10 µM

CCN1CCCC1CNC(=O)c1cc(S(=O)(=O)CC)ccc1OC (stereo not given) [SULTOPRIDE]
AC50 [3]: > 30 µM
AC50 (Histamine H1 receptor): > 30 µM

C=CCN1CCc2nc(N)sc2CC1 [TALIPEXOLE]
AC50 [1]: > 30 µM

CCOC(=O)[C@@H](N)Cc1ccc(-c2cc(O[C@H](c3ccc(Cl)cc3-n3ccc(C)n3)C(F)(F)F)nc(N)n2)cc1 [TELOTRISTAT ETHYL]
AC50 [3]: > 30 µM
AC50 [2]: > 30 µM
AC50 [4]: > 1 µM

CCCCCCCC(=O)CC[C@@H]1[C@@H](C/C=C\CCCC(=O)OC(C)C)[C@@H](O)C[C@H]1O [UNOPROSTONE ISOPROPYL]
AC50 [4]: 27 µM
